Experimental data: patent US9221756B2, “Pyrrole derivatives” (priority 2011, dated 2015)

The compounds below were run against pneumolysin (Streptococcus pneumoniae serotype 2, UniProt Q04IN8) (assay: Inhibition of the haemolytic activity of pneumolysin (sheep erythrocytes)). Settings: IC50, inhibition of pneumolysin-induced haemolysis of sheep erythrocytes; class symbols of Table 1.
Assay type: cell-based

Sequence of pneumolysin (Q04IN8 whole entry): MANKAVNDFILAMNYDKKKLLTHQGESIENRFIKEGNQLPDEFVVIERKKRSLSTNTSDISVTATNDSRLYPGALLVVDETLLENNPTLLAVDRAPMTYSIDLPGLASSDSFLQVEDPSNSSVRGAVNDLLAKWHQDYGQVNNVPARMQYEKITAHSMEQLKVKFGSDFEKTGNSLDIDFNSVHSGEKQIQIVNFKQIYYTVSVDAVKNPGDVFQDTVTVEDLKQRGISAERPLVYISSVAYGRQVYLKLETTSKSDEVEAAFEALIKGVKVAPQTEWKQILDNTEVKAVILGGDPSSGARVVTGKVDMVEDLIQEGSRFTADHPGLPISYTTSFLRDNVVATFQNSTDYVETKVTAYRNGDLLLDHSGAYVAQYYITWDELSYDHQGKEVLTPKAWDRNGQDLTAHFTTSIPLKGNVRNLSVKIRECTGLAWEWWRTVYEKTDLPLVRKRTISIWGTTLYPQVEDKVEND

How did the IC50 turn out when `CCN(CC)C(=O)c1c(O)c(O)c(C(=O)N(CC)CC)n1-c1ccc(F)cc1` [UL1-001, N^2,N^2,N^5,N^5-tetraethyl-1-(4-fluorophenyl)-3,4-dihydroxy-1H-pyrrole-2,5-dicarboxamide] was run?
Its IC50 is under 10 µM.

How did the IC50 turn out when `CC(C)N(C)C(=O)c1c(O)c(O)c(C(=O)N(C)C(C)C)n1-c1ccc(F)cc1` [UL1-013, 1-(4-fluorophenyl)-3,4-dihydroxy-N^2,N^5-diisopropyl-N^2,N^5-dimethyl-1H-pyrrole-2,5-dicarboxamide] was run?
Its IC50 is under 10 µM.

How did the IC50 turn out when `CCOC(=O)c1c(O)c(O)c(C(=O)N(C)C)n1-c1ccc(I)cc1` [UL1-042, ethyl 5-(dimethylcarbamoyl)-3,4-dihydroxy-1-(4-iodophenyl)-1H-pyrrole-2-carboxylate] was run?
Its IC50 is under 10 µM.

How did the IC50 turn out when `O=C(c1c(O)c(O)c(C(=O)N2CCOCC2)n1-c1ccc(F)cc1)N1CCOCC1` [UL1-006, (1-(4-fluorophenyl)-3,4-dihydroxy-1H-pyrrole-2,5-diyl)bis(morpholinomethanone)] was run?
The IC50 was under 10 µM.

How did the IC50 turn out when `CCOC(=O)c1c(O)c(O)c(C(=O)N(C)C)n1-c1ccc(OCCCN2CCOCC2)cc1` [UL1-102, ethyl 5-(dimethylcarbamoyl)-3,4-dihydroxy-1-(4-(3-morpholinopropoxy)phenyl)-1H-pyrrole-2-carboxylate] was run?
Its IC50 is under 10 µM.

With `CCOC(=O)c1c(O)c(O)c(C(=O)OCC)n1-c1ccc(OC)c(OC)c1` [UL2-011, diethyl 1-(3,4-dimethoxyphenyl)-3,4-dihydroxy-1H-pyrrole-2,5-dicarboxylate] as the compound, how does the IC50 read?
The IC50 was under 10 µM.

For `CCOC(=O)c1c(OCc2ccccc2)c(OCc2ccccc2)c(-c2nnc(CC)o2)n1-c1ccc(OC)cc1` [UL1-088, ethyl 3,4-bis(benzyloxy)-5-(5-ethyl-1,3,4-oxadiazol-2-yl)-1-(4-methoxyphenyl)-1H-pyrrole-2-carboxylate], which IC50 is on record?
The IC50 was 10 to 20 µM.

For `CCOC(=O)c1c(O)c(OCCO)c(C(=O)OCC)n1-c1ccc(F)cc1` [UL2-025, diethyl 1-(4-fluorophenyl)-3-hydroxy-4-(2-hydroxyethoxy)-1H-pyrrole-2,5-dicarboxylate], which IC50 is on record?
Its IC50 is 20 to 60 µM.

For `CCOc1ccc(-n2c(C(=O)N(C)C)c(OCc3ccccc3)c(OCc3ccccc3)c2C(=O)N(C)C)cc1` [UL1-052, 3,4-bis(benzyloxy)-1-(4-ethoxyphenyl)-N^2,N^2,N^5,N^5-tetramethyl-1H-pyrrole-2,5-dicarboxamide], which IC50 is on record?
Its IC50 is under 10 µM.

`CCOC(=O)c1c(O)c(O)c(C(=O)OCC)n1-c1ccc(C#N)cc1` [UL2-024, diethyl 1-(4-cyanophenyl)-3,4-dihydroxy-1H-pyrrole-2,5-dicarboxylate] was tested. Which IC50 did it give?
Its IC50 is 10 to 20 µM.

For `CC(=O)N1CCN(C(=O)c2c(O)c(O)c(C(=O)N3CCN(C(C)=O)CC3)n2-c2ccc(F)cc2)CC1` [UL1-010, 1,1′-(4,4′-(1-(4-fluorophenyl)-3,4-dihydroxy-1H-pyrrole-2,5-dicarbonyl)bis(piperazine-4,1-diyl))diethanone], which IC50 is on record?
The IC50 was under 10 µM.

Which IC50 does the source give for `CCOC(=O)c1c(OCc2ccccc2)c(OCc2ccccc2)c(-c2ccccn2)n1-c1ccc(OC)cc1` [UL1-082, ethyl 3,4-bis(benzyloxy)-1-(4-methoxyphenyl)-5-(pyridin-2-yl)-1H-pyrrole-2-carboxylate] here?
Its IC50 is 10 to 20 µM.

Which IC50 does the source give for `CCOC(=O)c1c(OC(=O)CCOC)c(OC(=O)CCOC)c(C(=O)N(C)C)n1-c1ccc(OC)cc1` [UL1-104, 2-(dimethylcarbamoyl)-5-(ethoxycarbonyl)-1-(4-methoxyphenyl)-1H-pyrrole-3,4-diyl bis(3-methoxypropanoate)] here?
The IC50 was under 10 µM.

Which IC50 does the source give for `CC(C)(C)OC(=O)N1CCN(C(=O)c2c(O)c(O)c(C(=O)N3CCN(C(=O)OC(C)(C)C)CC3)n2-c2ccc(F)cc2)CC1` [UL1-009, di-tert-butyl 4,4′-(1-(4-fluorophenyl)-3,4-dihydroxy-1H-pyrrole-2,5-dicarbonyl)bis(piperazine-1-carboxylate)] here?
Its IC50 is under 10 µM.

`CCOC(=O)c1c(O)c(OCC(=O)OC(C)(C)C)c(C(=O)OCC)n1-c1ccc(F)cc1` [UL2-027, diethyl 3-(2-(tert-butoxy)-2-oxoethoxy)-1-(4-fluorophenyl)-4-hydroxy-1H-pyrrole-2,5-dicarboxylate] was tested. Which IC50 did it give?
Its IC50 is 10 to 20 µM.

`CCOC(=O)c1c(O)c(O)c(C(=O)N2CCOCC2)n1-c1ccc(OC)cc1` [UL1-040, ethyl 3,4-dihydroxy-1-(4-methoxyphenyl)-5-(morpholine-4-carbonyl)-1H-pyrrole-2-carboxylate] was tested. Which IC50 did it give?
The IC50 was under 10 µM.

For `COc1ccccc1-n1c(C(=O)N2CCOCC2)c(OCc2ccccc2)c(OCc2ccccc2)c1C(=O)N1CCOCC1` [UL1-051, (3,4-bis(benzyloxy)-1-(2-methoxyphenyl)-1H-pyrrole-2,5-diyl)bis(morpholinomethanone)], which IC50 is on record?
Its IC50 is 20 to 60 µM.

Which IC50 does the source give for `CCOC(=O)c1c(OCc2ccccc2)c(OCc2ccccc2)c(-c2nn[nH]n2)n1-c1ccc(OC)cc1` [UL1-090, ethyl 3,4-bis(benzyloxy)-1-(4-methoxyphenyl)-5-(2H-tetrazol-5-yl)-1H-pyrrole-2-carboxylate] here?
The IC50 was under 10 µM.

`CCOc1ccc(-n2c(C(=O)N3CCOCC3)c(OCc3ccccc3)c(OCc3ccccc3)c2C(=O)N2CCOCC2)cc1` [UL1-053, (3,4-bis(benzyloxy)-1-(4-ethoxyphenyl)-1H-pyrrole-2,5-diyl)bis(morpholinomethanone)] was tested. Which IC50 did it give?
The IC50 was 10 to 20 µM.

How did the IC50 turn out when `CCOC(=O)c1c(O)c(O)c(C(=O)OCC)n1-c1cccc(Oc2ccccc2)c1` [UL2-018, diethyl 3,4-dihydroxy-1-(3-phenoxyphenyl)-1H-pyrrole-2,5-dicarboxylate] was run?
The IC50 was under 10 µM.

How did the IC50 turn out when `CCOC(=O)c1c(O)c(OCCO)c(C(=O)OCC)n1-c1ccc(OC)cc1` [UL2-026, diethyl 3-hydroxy-4-(2-hydroxyethoxy)-1-(4-methoxyphenyl)-1H-pyrrole-2,5-dicarboxylate] was run?
The IC50 was 20 to 60 µM.

`COc1ccc(-n2c(C(C)=O)c(O)c(O)c2C(=O)N(C)C)cc1` [UL1-091, 5-acetyl-3,4-dihydroxy-1-(4-methoxyphenyl)-N,N-dimethyl-1H-pyrrole-2-carboxamide] was tested. Which IC50 did it give?
Its IC50 is under 10 µM.

For `CCOC(=O)c1c(OCc2ccccc2)c(OCc2ccccc2)c(-c2ccncc2)n1-c1ccc(OC)cc1` [UL1-084, ethyl 3,4-bis(benzyloxy)-1-(4-methoxyphenyl)-5-(pyridin-4-yl)-1H-pyrrole-2-carboxylate], which IC50 is on record?
Its IC50 is under 10 µM.

`COc1ccc(-n2c(C(=O)N(C)C)c(OC(=O)[C@H]3CC[C@H](COP(=O)(O)O)CC3)c(OC(=O)[C@H]3CC[C@H](COP(=O)(O)O)CC3)c2C(=O)N(C)C)cc1` [UL1-126, (1R,1′R,4R,4′R)-2,5-bis(dimethylcarbamoyl)-1-(4-methoxyphenyl)-1H-pyrrole-3,4-diyl bis(4-((phosphonooxy)methyl)cyclohexanecarboxylate)] was tested. Which IC50 did it give?
The IC50 was under 10 µM.

With `CCOc1ccc(-n2c(C(=O)N(CC)CC)c(OCc3ccccc3)c(OCc3ccccc3)c2C(=O)N(CC)CC)cc1` [UL1-045, 3,4-bis(benzyloxy)-1-(4-ethoxyphenyl)-N^2,N^2,N^5,N^5-tetraethyl-1H-pyrrole-2,5-dicarboxamide] as the compound, how does the IC50 read?
The IC50 was under 10 µM.

With `COc1ccc(-n2c(C(=O)N(C)C)c(OCc3ccccc3)c(OCc3ccccc3)c2C(=O)N2CCN(C)CC2)cc1` [UL1-056, 3,4-bis(benzyloxy)-1-(4-methoxyphenyl)-N,N-dimethyl-5-(4-methylpiperazine-1-carbonyl)-1H-pyrrole-2-carboxamide] as the compound, how does the IC50 read?
Its IC50 is 10 to 20 µM.

`CN(C)C(=O)c1c(O)c(O)c(C(=O)N(C)C)n1-c1ccc(F)cc1` [ULI-008, 1-(4-fluorophenyl)-3,4-dihydroxy-N^2,N^2,N^5,N^5-tetramethyl-1H-pyrrole-2,5-dicarboxamide] was tested. Which IC50 did it give?
The IC50 was under 10 µM.
